Experimental data published in US20230087994A1, “TARGETED BIFUNCTIONAL DEGRADERS” (YALE UNIVERSITY, priority 2019, published 2023).

Key:
α-DNP antibody = experiment: Depletion of α-DNP antibody from serum in mice (ELISA); format: in vivo; details: for serum α-DNP antibody levels compared to PBS: initial 200 μg monoclonal antibody, 21 days, nude mice
Experimental: FIG. 94 illustrates that serum levels of α-DNP antibody decrease more rapidly following repeated treatment with DNP-GN3. Serum antibody levels were measured using an ELISA assay. Each experimental group contained three mice. Statistical differences in experiments involving in vivo depletion of α-DNP antibody were assessed by repeated measures two-way ANOVA with Tukey's tests for post-hoc comparison of simple effects between each of the treatment groups and PBS.
Single doses of DNP-GN3 were also found to be efficacious at mediating α-DNP antibody depletion, albeit less effectively than daily dosing (FIG. 96). […] Therefore, it was concluded that DNP-GN3 is able to mediate the depletion of a monoclonal antibody from serum, and functions across a wide range of target protein concentrations and dosing regimens.
DNP-GN3 was also found to be efficacious in depleting polyclonal α-DNP antibody from serum collected from mice immunized with DNP-keyhole limpet haemocyanin (KLH) (FIG. 97). […] Thus, the small molecule DNP-GN3 is not restricted in function to only monoclonal mouse antibodies, but is also effective at removing polyclonal α-DNP antibodies from circulation in mice.

[1] = Pharmacokinetics of DNP-GN3 in nude mice; format: in vivo; details: 1 mpk

CC(=O)NC1C(OCCOCCOCCNC(=O)CCOCC(COCCC(=O)NCCOCCOCCOC2OC(CO)C(O)C(O)C2NC(C)=O)(COCCC(=O)NCCOCCOCCOC2OC(CO)C(O)C(O)C2NC(C)=O)NC(=O)CNC(=O)COCCOCCOCCNc2ccc([N+](=O)[O-])cc2[N+](=O)[O-])OC(CO)C(O)C1O (stereo not shown) [DNP-GN3]
α-DNP antibody depleted from serum (α-DNP antibody; 24 hours after a single dose of 1 mpk (vehicle 24%)): 52%
α-DNP antibody depleted from serum (α-DNP antibody; 24 hours after a single dose of 10 mpk (vehicle 24%)): 34%
serum α-DNP antibody levels compared to PBS (α-DNP antibody; daily 1 mpk): significantly reduced
serum α-DNP antibody levels (α-DNP antibody; daily treatment, initial antibody dose 500 μg): significant decrease
polyclonal α-DNP antibody removed from serum compared to PBS (α-DNP antibody; daily treatment, mice immunized with DNP-KLH, each time point): significantly more polyclonal α-DNP antibody was removed
α-DNP antibody depletion from serum (α-DNP antibody; single dose of 100 mpk): Significant depletion
serum α-DNP antibody levels compared to PBS (α-DNP antibody; twice-daily 1 mpk): significantly reduced
bioavailability via IP dosing [1]: bioavailable
half-life in serum ([1]; IP): 40.2 min
time at which maximal serum concentration is reached ([1]; IP): 1 h
